Test results as given in patent US20260265055A1, “Sulfine-Based Compounds for Generating Hydrogen Persulfide” (Brown University, priority 2023, published 2026).

Tests used:
GAPDH = target: T1, GAPDH (Oryctolagus cuniculus, UniProt P46406); assay: GAPDH protein S-persulfidation (SSP4 fluorescence, LC-MS/MS); format: biochemical, rabbit
T1 construct: GAPDH (from rabbit muscle, #G2267, Sigma-Aldrich); purchased Sigma-Aldrich G2267; host or cells: rabbit muscle (tissue-purified)
Protocol: One of the primary functions of H2S2 is to induce protein S-persulfidation. Existing methods treat proteins with Na2S2 directly to obtain the persulfidated proteins. The present disclosure contemplates the use of TTS and H2S to persulfidate proteins as a comparison with Na2S2. GAPDH was used as the protein model and its persulfidation was evaluated by SSP4 using a protocol described in Shieh, M. et al., Shining a light on SSP4: a comprehensive analysis and biological applications for the detection of sulfane sulfurs. Redox Biol. 2022, 56, 102433 and Ni, X. et al., A sweet H2S/H2O2 dual release system and specific protein S-persulfidation mediated by thioglucose/glucose oxidase. J. Am. Chem. Soc. 2021, 143, 13325-13332. Reduced GAPDH (100 μM) was individually treated with 10 eq. of TTS+Na2S or Na2S2, as well as control reagents (TTS or Na2S only). The protein samples were then purified using Zeba Spin Desalting Columns (7K MWCO), diluted (to 10 μM), and treated with SSP4 (5 μM). Fluorescence signals were recorded to reflect persulfidation levels. […] To provide further evidence of persulfidation in the GAPDH system, TTS+Na2S-treated GAPDH was alkylated with HPE-IAM to stabilize the protein persulfides.
216 μL of PBS (50 mM, pH 7.4) was added to 3.9 mg of GAPDH (from rabbit muscle, #G2267, Sigma-Aldrich) to obtain a concentration of 500 μM (MW: 36 kDa). DTT (10 mM in DMSO, 11.35 μL) was added for a final equal concentration with the GAPDH. The solution was incubated in the dark at room temperature for 30 min. Zeba 7K MWCO spin columns were prepared and used according to manufacturer's instructions with 3 PBS washes. Excess reductant was removed by column purification with the Zeba 7K MWCO columns. The resulting reduced protein concentration was determined by the absorbance at 280 nm (εmM=30.4 mM-1 cm-1) using the Nanodrop One Microvolume UV-Vis Spectrophotometer (ThermoFisher Scientific). For controls, reduced GAPDH was treated with NEM (1:5 equiv.) and incubated at rt in the dark for 30 min before excess NEM was removed by the Zeba 7K MWCO columns. Next, the reduced protein was diluted to a final concentration of 100 μM in a final volume of 100 μL and treated with TTS (10 μL of 10 mM in DMSO for a final concentration of 1 mM), Na2S (10 μL of 10 mM in MilliQ H2O for a final concentration of 1 mM), both TTS and Na2S, or Na2S2 (10 μL of 10 mM in MilliQ H2O for a final concentration of 1 mM). For example, if the reduced protein (361 μM) was only to be treated with TTS, 62.3 μL of PBS (50 mM, pH 7.4) would first be added to an Eppendorf tube, followed by 27.7 μL of protein, and followed by 10 μL of TTS. TTS+Na2S and Na2S2 samples were also prepared at the concentrations above without any protein, where PBS (50 mM, pH 7.4) was used in place of the proteins (volume-wise). Samples were incubated at room temperature for 30 min in the dark before being purified by Zeba 7K MWCO columns (three times to ensure proper removal of excess treatment molecules) and quantified by absorbance. […] All samples were then incubated with SSP4 (5 μL of 100 μM in DMSO for a final concentration of 5 μM) in individual wells of a black clear flat bottom 96-well plate. The final volume was 100 μL. For example, if the persulfidated protein (99.5 μM) was to be examined, 84.95 μL of PBS (50 mM, pH 7.4) would first be added to a well, followed by 10.05 μL of protein, and then followed by 5 μL of SSP4. Incubation occurred at room temperature in the dark for 30 min before being measured on the SpectraMax iD3 microplate reader (ex: 485 nm; em: 525 nm).

[1] = Monitoring H2S2 formation from the TTS-TAGDD hybrid compound 3 (SSP4, 12 h); conditions: 25 μM compound only, over 12 hours
Protocol: Monitoring H2S2 formation from the TTS-TAGDD hybrid compound 3: TTS and 3 were prepared as 1 mM solutions in DMSO. L-cysteine and Na2S2 were prepared at 4 mM and 1 mM in MilliQ H2O, respectively. SSP4 was dissolved in DMSO to obtain a 200 μM stock solution. CTAB was dissolved in ethanol to yield a 2 mM stock solution. 50 mM PBS buffer (pH 7.4) was added to individual wells of a black polystyrene, flat-bottomed clear 96-well plate, followed by TTS (25 μM) or 3 (25 μM) then cysteine (100 μM) or Na2S2 (25 μM). Samples were mixed by pipetting up and down and incubated in the dark at room temperature (rt) for 30 min. Next, CTAB (50 μM) was added to all wells followed by SSP4 (5 μM), and samples were mixed by pipetting up and down. Samples were then incubated in the dark at room temperature for another 30 min before being measured on a Molecular Devices SpectraMax iD3 Multi-Mode Microplate Reader (fluorescence mode; kinetics measurement type; emission 535 nm; excitation 485 nm; integration time […], low PMT sensitivity, attenuation 1, read height 1.00 mm; total run time: 12 hours; 25 cycles; interval: 0.5 hours). Data was graphed as a time dependent fluorescence response, with F0 as the SSP4 only condition. The fluorescence of Na2S2 over time was not represented in the line graph presented due to the compound's known instability. Data obtained from the 12 h time point including from Na2S2 was also represented in a bar graph for greater clarity. Results were expressed as mean±SEM (n=3).

T1 sequence (P46406 whole entry): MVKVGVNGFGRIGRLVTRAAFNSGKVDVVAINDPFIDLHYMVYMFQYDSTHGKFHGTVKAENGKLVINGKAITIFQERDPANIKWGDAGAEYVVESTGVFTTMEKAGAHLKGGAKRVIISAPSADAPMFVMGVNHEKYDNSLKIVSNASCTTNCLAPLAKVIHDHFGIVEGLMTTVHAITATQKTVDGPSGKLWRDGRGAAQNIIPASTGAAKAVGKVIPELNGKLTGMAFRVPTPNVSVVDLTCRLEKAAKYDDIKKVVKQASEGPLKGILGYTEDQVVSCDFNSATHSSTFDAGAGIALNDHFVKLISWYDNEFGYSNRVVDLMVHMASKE

GAPDH persulfidation signal compared with Na2S2 (GAPDH; TTS 1 mM + Na2S 1 mM vs Na2S2 1 mM, one-way ANOVA): significantly higher signals than Na2S2
GAPDH persulfidation by LC-MS/MS after HPE-IAM alkylation and trypsin digestion (GAPDH; TTS+Na2S-treated GAPDH): successful protein persulfidation
SSP4 fluorescence of persulfidated GAPDH (GAPDH; reduced GAPDH 100 μM treated with TTS 1 mM + Na2S 1 mM): strong fluorescence
SSP4 fluorescence of persulfidated GAPDH (GAPDH; reduced GAPDH 100 μM treated with the reagent only (1 mM)): did not give any notable fluorescence
SMILES: COC(=O)c1ccc(=S=O)sc1 [TTS, 2H-thiopyran-2-thione sulfine]
SSP4 fluorescence [1]: did not give any notable fluorescence
